# Measured values from US6709873B1, “Method for production of antibodies to specific sites of rapamycin” (Isodiagnostika Inc., priority 1997, dated 2004).
# How the values were obtained:
# MoAb R-2-2 = assay: Inhibition ELISA of MoAb R-2-2; type: binding, mouse; set-up: concentration or dose not given beside the values; conditions: tissue culture supernatant
# Method: (§1) Inhibition ELISA Protocol
# (§2) 1. Use Falcon® Pro-bind™ inununoplates.
# (§3) 2. Dilute coating antigen to 1 μg/mL in carbonate-bicarbonate buffer.
# (§4) Add 100 μL per well and incubate overnight at 4° C.
# (§5) 3. On the same day prepare inhibiting antigen tubes. Aliquot antibodies into glass test tubes. Prepare appropriate antigen concentration in ethanol and add to aliquoted antibody at 10 μL ethanol solution/250 μL antibody.
# (§6) Vortex tubes and incubate overnight at 4° C.
# (§7) 4. Shake out wells and wash 3× with 200 μL PBS/0.05% TWEEN™ (polyoxyethylene-sorbitol) (v/v) per well.
# (§8) 5. Add 200 μL blocking buffer per well (PBS/2% BSA (w/v)).
# (§9) Incubate 60 min at room temperature.
# (§10) 7. Transfer contents of inhibition tubes to antigen-coated plate, 100 μL per well. Incubate 60 min at 37° C.
# (§11) 9. […] Add 100 μL per well and incubate at 37° C. for 60 min.
# (§12) 11. […] Add 100 μL per well and incubate in the dark at room temperature. Absorbance can be read at 405 nm at approximately 15-min intervals.
# (§13) To further characterize the reactivity of monoclonal antibodies from various clones, inhibition ELISA were performed.
# MoAb R-1-1 = assay: Inhibition ELISA of MoAb R-1-1; type: binding, mouse; set-up: concentration or dose not given beside the values; conditions: tissue culture supernatant
# Method: as §1, §2, §3, §4, §5, §6, §7, §8, §9, §10, §11, §12, §13
# MoAb R-3-1 = assay: Inhibition ELISA of MoAb R-3-1; type: binding, mouse; set-up: concentration or dose not given beside the values; conditions: tissue culture supernatant
# Method: as §1, §2, §3, §4, §5, §6, §7, §8, §9, §10, §11, §12, §13
# [1] = system: Mouse polyclonal antibody Rapa-27 #12 (Rapa-27-ox-DVS-KLH immunogen); assay: Inhibition ELISA of mouse polyclonal serum Rapa-27 #12; set-up: concentration or dose not given beside the values; conditions: binding to Rapa-27-HSA
# Method: as §1, §2, §3, §4, §5, §6, §7, §8, §9, §10, §11, §12
# [2] = system: Rabbit #1 polyclonal antibody (Rapa-42-DVS-KLH immunogen); assay: Inhibition ELISA of rabbit #1 polyclonal serum; type: binding; set-up: concentration or dose not given beside the values; conditions: Rapa antigen coated ELISA plate
# Method: as §1, §2, §3, §4, §5, §6, §7, §8, §9, §10, §11, §12
# MoAb R-1-5 = assay: Inhibition ELISA of MoAb R-1-5; type: binding, mouse; set-up: concentration or dose not given beside the values; conditions: tissue culture supernatant
# Method: as §1, §2, §3, §4, §5, §6, §7, §8, §9, §10, §11, §12, §13
# [3] = system: Mouse polyclonal antibody Rapa-DVS #9; assay: Inhibition ELISA of mouse polyclonal serum Rapa-DVS #9; type: binding; set-up: concentration or dose not given beside the values
# Method: as §1, §2, §3, §4, §5, §6, §7, §8, §9, §10, §11, §12
# [4] = system: Mouse polyclonal antibody Rapa-DVS #7; assay: Inhibition ELISA of mouse polyclonal serum Rapa-DVS #7; type: binding; set-up: concentration or dose not given beside the values
# Method: as §1, §2, §3, §4, §5, §6, §7, §8, §9, §10, §11, §12
# MoAb R-6-2 = assay: Inhibition ELISA of MoAb R-6-2; type: binding, mouse
# Method: as §1, §2, §3, §4, §5, §6, §7, §8, §9, §10, §11, §12
# MoAb R-6-3 = assay: Inhibition ELISA of MoAb R-6-3; type: binding, mouse
# Method: as §1, §2, §3, §4, §5, §6, §7, §8, §9, §10, §11, §12
# MoAb R-5-3 = assay: Inhibition ELISA of MoAb R-5-3; type: binding, mouse; conditions: for Percent inhibition of MoAb R-5-3: tissue culture supernatant
# Method: as §1, §2, §3, §4, §5, §6, §7, §8, §9, §10, §11, §12
# MoAb R-4-7 = assay: Inhibition ELISA of MoAb R-4-7; type: binding, mouse; conditions: for Percent inhibition of MoAb R-4-7: tissue culture supernatant
# Method: as §1, §2, §3, §4, §5, §6, §7, §8, §9, §10, §11, §12
# MoAb R-4-1 = assay: Inhibition ELISA of MoAb R-4-1; type: binding, mouse; conditions: for Percent inhibition of MoAb R-4-1: tissue culture supernatant
# Method: as §1, §2, §3, §4, §5, §6, §7, §8, §9, §10, §11, §12
# [5] = system: Chicken polyclonal antibody (IgY, Rapa-42-DVS-KLH immunogen); assay: Inhibition ELISA of chicken IgY prep; type: binding; set-up: concentration or dose not given beside the values; conditions: Rapa antigen coated ELISA plate
# Method: as §1, §2, §3, §4, §5, §6, §7, §8, §9, §10, §11, §12
# [6] = Relative concentrations of Rapa metabolites in pooled whole blood patient samples (LC/MS); type: in vivo; conditions: Rapa = 1
# Description: No individual metabolite is found at a concentration greater than 20% of the Rapa parent level.
# lymphocytes = assay: In vitro mixed lymphocyte reaction (MLR) assay, two-way lymphocyte proliferation; type: cell-based; conditions: 3H-thymidine incorporation
# Description: The MLR assay is useful for identifying rapamycin metabolites with biological (immunosupressive) activity and to quantify this activity relative to the immunosuppressive activity of the parent rapamycin molecule.
# An example of a two-way lymphocyte proliferation assay procedure useful for this purpose is as follows:
# 1. Collect blood from two individuals (20 mls each) and isolate lymphocytes using Ficoll-Paque™ (polysucrose and sodium diatrizoate) (Pharmacia Biotech).
# 2. Count lymphocytes at 1:10 dilution in 2% acetic acid (v/v).
# 3. Prepare 10 mls of each lymphocyte populations (A+B) at 1×10^6 cells/ml in DMEM/20% FCS (v/v).
# 4. Set up a 96 well sterile tissue culture plate, flat bottom (Sarstedt, cat # 83.1835). To each well add:
# 5. Aliquot 100 μl per well lymphocyte population A
# 6. Aliquot 100 μl per well lymphocyte population B
# 7. Aliquot 20 μl per well of drug (rapamycin and rapamycin metabolites M1-5) serially diluted 0 to 1000 μg/L in triplicate in DMEM with no supplements.
# 8. […]
# 10. […] Wash cells 3× with 1.0-ml sterile distilled water.
# Note: All procedures are done using sterile techniques in a biological flow hood.
# 11. Place filters in Scintilation vials and add 1.5 mls of ScintiSafe Plus™ 50% scintillation fluid (Fisher, cat #SX-25-5).
# 12. Measure the amount of radioactivity incorporated in the lymphocytes using a beta counter (Micromedic System Inc., TAURUS™ Automatic Liquid Scintillation Counter) for 1.0 minute.
# 13. Calculate averages and standard deviations for each drug and express results as: [formula]
Compound,Percent inhibition of MoAb R-2-2 (MoAb R-2-2) [%],Percent inhibition of MoAb R-1-1 (MoAb R-1-1) [%],Percent inhibition of MoAb R-3-1 (MoAb R-3-1) [%],Percent inhibition of mouse polyclonal antibody Rapa-27 #12 [1] [%],Percent inhibition of Rabbit #1 polyclonal antibody [2] [%],Percent inhibition of MoAb R-1-5 (MoAb R-1-5) [%],Percent inhibition of mouse polyclonal antibody Rapa-DVS #9 [3] [%],Percent inhibition of mouse polyclonal antibody Rapa-DVS #7 [4] [%],Percent inhibition of MoAb R-6-2 (MoAb R-6-2) [%],Percent inhibition of MoAb R-6-3 (MoAb R-6-3) [%],Percent inhibition of MoAb R-5-3 (MoAb R-5-3) [%],Percent inhibition of MoAb R-4-7 (MoAb R-4-7) [%],Percent inhibition of MoAb R-4-1 (MoAb R-4-1) [%],Percent inhibition of Chicken polyclonal antibody [5] [%],Relative Concentration in whole blood [6],"Mixed Lymphocyte Reaction IC50, Mean (lymphocytes) [ng/mL]",further results
"C=CC[C@@H]1/C=C(\C)C[C@H](C)C[C@H](OC)[C@H]2O[C@@](O)(C(=O)C(=O)N3CCCC[C@H]3C(=O)O[C@H](/C(C)=C/[C@@H]3CC[C@@H](O)[C@H](OC)C3)[C@H](C)[C@@H](O)CC1=O)[C@H](C)C[C@@H]2OC [FK, FK-506]",16,43,1,11,0,33,13.0,5.6,64,53,4,4,8,0,–,–,–
"CO[C@@H]1C[C@H](C[C@@H](C)[C@@H]2CC(=O)[C@H](C)/C=C(\C)[C@@H](O)[C@@H](OC)C(=O)[C@H](C)C[C@H](C)/C=C/C=C/C=C(\C)[C@@H](O)C[C@@H]3CC[C@@H](C)[C@@](O)(O3)C(=O)C(=O)N3CCCC[C@H]3C(=O)O2)CC[C@H]1O [M3, 7-O-Demethyl Rapamycin]",26,32,92,–,15,56,30.8,28.3,–,–,37,67,85,35,0.10,2.85,Percent inhibition of mouse polyclonal antibody Rapa-27 #12 ([1]; listed as Met 3): 43%; Percent inhibition of mouse polyclonal antibody Rapa-27 #12 ([1]; listed as metabolite # 3): 42%
"CO[C@H]1C[C@@H]2CC[C@@H](C)[C@@](O)(O2)C(=O)C(=O)N2CCCC[C@H]2C(=O)O[C@H]([C@H](C)C[C@@H]2CC[C@@H](O)[C@H](O)C2)CC(=O)[C@H](C)/C=C(\C)[C@@H](O)[C@@H](OC)C(=O)[C@H](C)C[C@H](C)/C=C/C=C/C=C/1C [M4, 41-O-Demethyl Rapamycin]",71,30,96,37,28,57,28.6,40.1,–,–,47,54,82,18,0.10,5.9,–
"CO[C@H]1C[C@@H]2CC[C@@H](C)[C@@](O)(O2)C(=O)C(=O)N2CCCC[C@H]2C(=O)O[C@H]([C@H](C)C[C@@H]2CC[C@@H](O)[C@H](O)C2)CC(=O)[C@H](C)/C=C(\C)[C@@H](O)[C@@H](O)C(=O)[C@H](C)C[C@H](C)/C=C/C=C/C=C/1C [M5, 32,41-Demethyl Rapamycin]",10,29,94,0,16,44,37.3,39.8,–,–,46,87,88,35,0.02,4.67,–
CO[C@H]1C[C@@H]2CC[C@@H](C)[C@@](O)(O2)C(=O)C(=O)N2CCCC[C@H]2C(=O)O[C@H]([C@H](C)C[C@@H]2CC[C@@H](OCCO)[C@H](OC)C2)CC(=O)[C@H](C)/C=C(\C)[C@@H](O)[C@@H](OC)C(=O)[C@H](C)C[C@H](C)/C=C/C=C/C=C/1C [RAD],–,–,–,–,–,–,–,–,70,58,–,–,–,–,–,–,"Inhibition of MoAb R-5-3 (in words) (MoAb R-5-3; purified MoAb, increasing concentrations of Rapa or RAD, FIG. 3B): inhibited; Inhibition of MoAb R-4-7 (in words) (MoAb R-4-7): inhibited; Inhibition of MoAb R-4-1 (in words) (MoAb R-4-1; purified MoAb, increasing concentrations of Rapa or RAD, FIG. 3A): inhibited"
keyhole limpet hemocyanin [KLH],16,3,0,0,0,10,12.5,7.8,–,–,–,–,–,0,–,–,–
